What was measured:
Assay type in all cases: in vivo
[1] = tested on: pigweed (Amaranthus retroflexus); test: Test A pre-/postemergence plant response
Summary of the method: (§1)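 Both pre- and postemergence treatments are applied simultaneously, using chemicals formulated in a non-phytotoxic solvent mixture with surfactant. Postemergence plants are 2–10 cm high with one to two leaves. After approximately ten days in a greenhouse, injury is scored visually from 0 (none) to 100 (complete control) relative to untreated plants.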

[2] = tested on: large crabgrass (Digitaria sanguinalis); test: Test A pre-/postemergence plant response
Summary of the method: as §1

[3] = tested on: giant foxtail (Setaria faberii); test: Test A pre-/postemergence plant response
Summary of the method: as §1

[4] = tested on: wheat (Triticum aestivum); test: Test A pre-/postemergence plant response
Summary of the method: as §1

[5] = tested on: barnyardgrass (Echinochloa crus-galli); test: Test A pre-/postemergence plant response
Summary of the method: as §1

corn (Zea mays) = test: Test A pre-/postemergence plant response
Summary of the method: as §1

[6] = tested on: morningglory (Ipomoea spp.); test: Test A pre-/postemergence plant response
Summary of the method: as §1

[7] = tested on: velvetleaf (Abutilon theophrasti); test: Test A pre-/postemergence plant response
Summary of the method: as §1

[8] = tested on: winter barley (Hordeum vulgare); test: Test B postemergence plant response; details: for Plant response rating, Barley / Barley plant response rating: Postemergence; for Barley plant response rating: scale 0 to 100
Summary of the method: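 Visual ratings from 0 (no effect) to 100 (complete control), made against controls 13–15 days after treatment, kept in a greenhouse. Compounds were applied postemergence to potted plants at the 1- to 4-leaf stage (2–18 cm).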

rice (Oryza sativa) = test: Test B flooded paddy test; details: for Plant response rating, Flood, Rice: 250 g ai/ha, flooded paddy test, visual rating on 0 to 100 scale (0 no effect, 100 complete control) after 13 to 15 days; for Plant response rating, Rice: Flood (flooded paddy test), 13 to 15 days
Summary of the method: (§2)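 Flooded-pot test: water raised to 3 cm above soil when treating, compound put in the water, level unchanged thereafter. Plants were at 2 leaves. Readout after 13 to 15 days, visual, relative to controls; 0 signifies no effect and 100 complete control.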

[9] = tested on: ducksalad (Heteranthera limosa); test: Test B flooded paddy test; details: for Plant response rating, Flood, Ducksalad: 250 g ai/ha, flooded paddy test, visual rating on 0 to 100 scale (0 no effect, 100 complete control) after 13 to 15 days; for Plant response rating, Ducksalad: Flood (flooded paddy test), 13 to 15 days
Summary of the method: as §2

[10] = tested on: barnyardgrass (Echinochloa crus-galli); test: Test B flooded paddy test; details: for Plant response rating, Flood, Barnyardgrass: 250 g ai/ha, flooded paddy test, visual rating on 0 to 100 scale (0 no effect, 100 complete control) after 13 to 15 days; for Plant response rating, Barnyardgrass: Flood (flooded paddy test), 13 to 15 days
Summary of the method: as §2

[11] = tested on: umbrella sedge (Cyperus difformis); test: Test B flooded paddy test; details: for Plant response rating, Flood, Sedge, Umbrella: 250 g ai/ha, flooded paddy test, visual rating on 0 to 100 scale (0 no effect, 100 complete control) after 13 to 15 days; for Plant response rating, Sedge, Umbrella: Flood (flooded paddy test), 13 to 15 days
Summary of the method: as §2

[12] = Postemergence, 125 g ai/ha, visual injury, 0 to 100 scale (0 no effect, 100 complete control), approx. ten days
[13] = Postemergence, 500 g ai/ha, 0 to 100 scale, 0 = no effect, 100 = complete control, approx. ten days
[14] = Preemergence, 125 g ai/ha, 0 to 100 scale, 0 = no effect, 100 = complete control
[15] = Preemergence, 500 g ai/ha, visual injury, 0 to 100 scale (0 no effect, 100 complete control), approx. ten days
[16] = 31 g ai/ha, scale 0 to 100 (0 no effect, 100 complete control)
[17] = 62 g ai/ha, scale 0 (no effect) to 100 (complete control), 13 to 15 days
[18] = 31 g ai/ha, scale of 0 to 100 where 0 is no effect and 100 is complete control
[19] = 62 g ai/ha, scale 0 to 100, 0 is no effect, 100 is complete control
[20] = 125 g ai/ha, scale 0 to 100, 0 is no effect, 100 is complete control
[21] = Postemergence, 125 g ai/ha, 0 to 100 scale where 0 is no effect and 100 is complete control
[22] = Preemergence, 500 g ai/ha, 0 to 100 scale, 0 = no effect, 100 = complete control
[23] = 62 g ai/ha, scale of 0 to 100 where 0 is no effect and 100 is complete control
[24] = Flood, 31 g ai/ha, scale 0 to 100 (0 no effect, 100 complete control)

Cc1cc(C)cc(-n2c(-c3ccccc3)ncc(C(=O)C3=C(O)CCCC3=O)c2=O)c1 [Compound 33]
Pigweed plant response rating [1, 12]: 90 | Plant response rating, Pigweed [1, 13]: 100 | Plant response rating, Pigweed [1, 14]: 80 | Plant response rating, Pigweed [1, 15]: 90 | Crabgrass, Large plant response rating [2, 12]: 70 | Plant response rating, Crabgrass, Large [2, 13]: 100 | Plant response rating, Crabgrass, Large [2, 14]: 80 | Plant response rating, Crabgrass, Large [2, 15]: 100 | Foxtail, Giant plant response rating [3, 12]: 60 | Plant response rating, Foxtail, Giant [3, 13]: 100 | Plant response rating, Foxtail, Giant [3, 14]: 30 | Plant response rating, Foxtail, Giant [3, 15]: 90 | Wheat plant response rating [4, 12]: 0 | Plant response rating, Wheat [4, 13]: 20 | Plant response rating, Wheat [4, 14]: 0 | Plant response rating, Wheat [4, 15]: 10 | Barnyardgrass plant response rating [5, 12]: 80 | Plant response rating, Barnyardgrass [5, 13]: 100 | Plant response rating, Barnyardgrass [5, 14]: 10 | Plant response rating, Barnyardgrass [5, 15]: 90 | Corn plant response rating (corn (Zea mays); [12]): 0 | Plant response rating, Corn (corn (Zea mays); [13]): 20 | Plant response rating, Corn (corn (Zea mays); [14]): 0 | Plant response rating, Corn (corn (Zea mays); [15]): 30 | Morningglory plant response rating [6, 12]: 80 | Plant response rating, Morningglory [6, 13]: 90 | Plant response rating, Morningglory [6, 14]: 0 | Plant response rating, Morningglory [6, 15]: 50 | Velvetleaf plant response rating [7, 12]: 100 | Plant response rating, Velvetleaf [7, 13]: 100 | Plant response rating, Velvetleaf [7, 14]: 50 | Plant response rating, Velvetleaf [7, 15]: 80 | Plant response rating, Barley [8, 16]: 0 | Plant response rating, Barley [8, 17]: 0 | Plant response rating, Barley ([8]; 125 g ai/ha, visual rating after 13 to 15 days, scale 0 (no effect) to 100 (complete control)): 0 | Barley plant response rating ([8]; 250 g ai/ha): 0 | Plant response rating, Flood, Rice (rice (Oryza sativa)): 50 | Plant response rating, Rice (rice (Oryza sativa); [18]): 0 | Plant response rating, Rice (rice (Oryza sativa); [19]): 0 | Plant response rating, Rice (rice (Oryza sativa); [20]): 20 | Plant response rating, Flood, Ducksalad [9]: 95 | Plant response rating, Ducksalad [9, 18]: 60 | Plant response rating, Ducksalad [9, 19]: 75 | Plant response rating, Ducksalad [9, 20]: 80 | Plant response rating, Flood, Barnyardgrass [10]: 40 | Plant response rating, Barnyardgrass [10, 18]: 0 | Plant response rating, Barnyardgrass [10, 19]: 20 | Plant response rating, Barnyardgrass [10, 20]: 30 | Plant response rating, Flood, Sedge, Umbrella [11]: 85 | Plant response rating, Sedge, Umbrella [11, 18]: 20 | Plant response rating, Sedge, Umbrella [11, 19]: 30 | Plant response rating, Sedge, Umbrella [11, 20]: 50

COCCn1c(-c2cccc(Cl)c2)ncc(C(=O)C2=C(O)CCCC2=O)c1=O [Compound 147]
Plant response rating, Pigweed [1, 21]: 100 | Plant response rating, Pigweed [1, 13]: 100 | Plant response rating, Pigweed [1, 14]: 90 | Plant response rating, Pigweed [1, 15]: 100 | Plant response rating, Crabgrass, Large [2, 21]: 80 | Plant response rating, Crabgrass, Large [2, 13]: 90 | Plant response rating, Crabgrass, Large [2, 14]: 100 | Plant response rating, Crabgrass, Large [2, 15]: 100 | Plant response rating, Foxtail, Giant [3, 21]: 70 | Plant response rating, Foxtail, Giant [3, 13]: 80 | Plant response rating, Foxtail, Giant [3, 14]: 70 | Plant response rating, Foxtail, Giant [3, 15]: 90 | Plant response rating, Wheat [4, 21]: 20 | Plant response rating, Wheat [4, 13]: 60 | Plant response rating, Wheat [4, 14]: 0 | Plant response rating, Wheat [4, 22]: 20 | Plant response rating, Barnyardgrass [5, 21]: 80 | Plant response rating, Barnyardgrass [5, 13]: 90 | Plant response rating, Barnyardgrass [5, 14]: 70 | Plant response rating, Barnyardgrass [5, 15]: 100 | Plant response rating, Corn (corn (Zea mays); [21]): 20 | Plant response rating, Corn (corn (Zea mays); [13]): 30 | Plant response rating, Corn (corn (Zea mays); [14]): 0 | Plant response rating, Corn (corn (Zea mays); [15]): 0 | Plant response rating, Morningglory [6, 21]: 100 | Plant response rating, Morningglory [6, 13]: 100 | Plant response rating, Morningglory [6, 14]: 40 | Plant response rating, Morningglory [6, 15]: 90 | Plant response rating, Velvetleaf [7, 21]: 100 | Plant response rating, Velvetleaf [7, 13]: 100 | Plant response rating, Velvetleaf [7, 14]: 80 | Plant response rating, Velvetleaf [7, 22]: 100 | Barley plant response rating (0 to 100 scale) ([8]; 62 g ai/ha, postemergence, 0 is no effect, 100 is complete control, 13 to 15 days): 0 | Plant response rating, Barley ([8]; 31 g ai/ha, 0 to 100 scale (0 no effect, 100 complete control)): 0 | Plant response rating, Barley ([8]; 125 g ai/ha, scale 0 to 100 (0 no effect, 100 complete control)): 0 | Plant response rating, Barley ([8]; 250 g ai/ha, scale 0 to 100 (0 no effect, 100 complete control), 13 to 15 days): 0 | Plant response rating, Flood, Rice (rice (Oryza sativa)): 15 | Plant response rating, Rice (rice (Oryza sativa); [23]): 0 | Plant response rating, Rice (rice (Oryza sativa); [20]): 10 | Rice plant response rating (rice (Oryza sativa); [24]): 0 | Plant response rating, Flood, Ducksalad [9]: 100 | Plant response rating, Ducksalad [9, 23]: 60 | Plant response rating, Ducksalad [9, 20]: 80 | Ducksalad plant response rating [9, 24]: 60 | Plant response rating, Flood, Barnyardgrass [10]: 75 | Plant response rating, Barnyardgrass [10, 23]: 10 | Plant response rating, Barnyardgrass [10, 20]: 45 | Barnyardgrass plant response rating [10, 24]: 0 | Plant response rating, Flood, Sedge, Umbrella [11]: 80 | Plant response rating, Sedge, Umbrella [11, 23]: 40 | Plant response rating, Sedge, Umbrella [11, 20]: 40 | Sedge, Umbrella plant response rating [11, 24]: 0

3-cyclohexyl-5-[(2-hydroxy-6-oxo-1-cyclohexen-1-yl)carbonyl]-2-phenyl-4(3H)-pyrimidinone [Compound 128]
Pigweed plant response rating [1, 12]: 90 | Plant response rating, Pigweed [1, 13]: 100 | Plant response rating, Pigweed [1, 14]: 60 | Plant response rating, Pigweed [1, 15]: 100 | Crabgrass, Large plant response rating [2, 12]: 50 | Plant response rating, Crabgrass, Large [2, 13]: 90 | Plant response rating, Crabgrass, Large [2, 14]: 20 | Plant response rating, Crabgrass, Large [2, 15]: 90 | Foxtail, Giant plant response rating [3, 12]: 70 | Plant response rating, Foxtail, Giant [3, 13]: 90 | Plant response rating, Foxtail, Giant [3, 14]: 10 | Plant response rating, Foxtail, Giant [3, 15]: 50 | Wheat plant response rating [4, 12]: 0 | Plant response rating, Wheat [4, 13]: 0 | Plant response rating, Wheat [4, 14]: 0 | Plant response rating, Wheat [4, 15]: 0 | Barnyardgrass plant response rating [5, 12]: 40 | Plant response rating, Barnyardgrass [5, 13]: 100 | Plant response rating, Barnyardgrass [5, 14]: 0 | Plant response rating, Barnyardgrass [5, 15]: 70 | Corn plant response rating (corn (Zea mays); [12]): 0 | Plant response rating, Corn (corn (Zea mays); [13]): 20 | Plant response rating, Corn (corn (Zea mays); [14]): 0 | Plant response rating, Corn (corn (Zea mays); [15]): 0 | Morningglory plant response rating [6, 12]: 90 | Plant response rating, Morningglory [6, 13]: 90 | Plant response rating, Morningglory [6, 14]: 0 | Plant response rating, Morningglory [6, 15]: 70 | Velvetleaf plant response rating [7, 12]: 100 | Plant response rating, Velvetleaf [7, 13]: 100 | Plant response rating, Velvetleaf [7, 14]: 60 | Plant response rating, Velvetleaf [7, 15]: 100 | Plant response rating, Barley [8, 16]: 0 | Plant response rating, Barley [8, 17]: 10 | Plant response rating, Barley ([8]; 125 g ai/ha, scale 0 to 100 (0 no effect, 100 complete control), 13 to 15 days): 10 | Barley plant response rating ([8]; 250 g ai/ha): 10 | Plant response rating, Flood, Rice (rice (Oryza sativa)): 25 | Plant response rating, Rice (rice (Oryza sativa); [18]): 0 | Plant response rating, Rice (rice (Oryza sativa); [19]): 10 | Plant response rating, Rice (rice (Oryza sativa); [20]): 20 | Plant response rating, Flood, Ducksalad [9]: 80 | Plant response rating, Ducksalad [9, 18]: 0 | Plant response rating, Ducksalad [9, 19]: 0 | Plant response rating, Ducksalad [9, 20]: 65 | Plant response rating, Flood, Barnyardgrass [10]: 25 | Plant response rating, Barnyardgrass [10, 18]: 0 | Plant response rating, Barnyardgrass [10, 19]: 0 | Plant response rating, Barnyardgrass [10, 20]: 0 | Plant response rating, Flood, Sedge, Umbrella [11]: 85 | Plant response rating, Sedge, Umbrella [11, 18]: 0 | Plant response rating, Sedge, Umbrella [11, 19]: 0 | Plant response rating, Sedge, Umbrella [11, 20]: 40

Reference: patent US8952024B2, “Herbicidal pyrimidone derivatives” (E I du Pont de Nemours and Company, priority 2009, dated 2015)
